Laboratory results: patent publication EP1339694B1 (F. HOFFMANN-LA ROCHE AG, priority 2000, dated 2002)

Each molecule was assayed against T1, Human Platelet IP Receptor (Homo sapiens, UniProt P43119) (assay: In vitro Human Platelet IP Receptor Radioligand Binding Assay). Conditions: not given.
T1 construct: 250 ml Platelet Rich Plasma was transferred into 250 ml centrifuge tubes and spun at 6000 g; from tissue; host or cells: membranes prepared from platelets (platelet rich plasma)
Procedure: In vitro Human Platelet IP Receptor Radioligand Binding Assay
The in vitro Human Platelet IP Receptor Binding Assay measures the strength of a potential drug's binding affinity to its intended target.
The following buffers were prepared using the purest available water.
250 ml Platelet Rich Plasma was transferred into 250 ml centrifuge tubes and spun at 6000 g for 10 min at 20 °C. Pellets were then resuspended in IP lysis buffer and homogenized using a polytron(setting 7, 1x20 sec. burst), brought up to a final volume of 180 ml and centrifuged at 40000 g for 15 min at 4 °C. The pellets were then resuspended in IP assay buffer, protein density determined by BCA method (Pierce) and stored in 2.0 ml vials at -80 °C for subsequent assay use.
To obtain at least 80 % specific binding, 50 µg protein/assay tube was used in a competition experiment. The final radioligand concentration was 1 to 3E-8 M.
The membranes were thawed at room temperature and then diluted in assay buffer to the appropriate concentration. First buffer, drug, radioligand, and lastly, membranes were added to the assay tubes. […] The assay tubes were filtered onto 0.3% PEI pre-treated glass fiber filtermats (GF/ B) using Packard Top Count 96 well cell harvester. The tubes were rinsed three times with ice cold 20mM Tris-HCl, 5mM MgCl2, pH=7.4 (3 x 0.5 ml/sample). Bound radioactivity was determined using liquid scintillation counting.

T1 sequence (P43119 whole entry): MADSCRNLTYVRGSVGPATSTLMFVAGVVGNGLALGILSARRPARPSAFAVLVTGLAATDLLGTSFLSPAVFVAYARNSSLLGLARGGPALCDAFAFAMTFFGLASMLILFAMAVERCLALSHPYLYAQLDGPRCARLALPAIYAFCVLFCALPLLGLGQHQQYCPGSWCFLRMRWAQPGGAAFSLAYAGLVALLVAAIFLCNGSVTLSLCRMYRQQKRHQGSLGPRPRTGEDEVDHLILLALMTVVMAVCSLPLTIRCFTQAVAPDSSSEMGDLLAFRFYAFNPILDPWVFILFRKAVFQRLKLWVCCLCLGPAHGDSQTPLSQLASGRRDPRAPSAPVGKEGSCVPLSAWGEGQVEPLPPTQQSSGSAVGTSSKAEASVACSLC

| Compound | Ki |
| --- | --- |
| O=C(CCc1ccc(NC2=NCCN2)cc1)c1ccc(N2CCN(C(=O)c3ccco3)CC2)cc1 | 0.468 nM |
| O=C(CCc1ccc(NC2=NCCN2)cc1)c1ccc(N2CCOCC2)cc1 [Example 3, 3-[4-(4,5-Dihydro-1H-imidazol-2-ylamino)phenyl]-1-(4-morpholin-4-ylphenyl)-propan-1-one] | 5.25 nM |

Same assay, conditions: human platelet membranes, radioligand competition, 25 °C for 60 min; read-out: Affinity towards the Human Platelet IP Receptor (pKi) (converted)

| Compound | Ki |
| --- | --- |
| O=C(CCc1ccc(NC2=NCCN2)cc1)c1ccc(Oc2ccccc2)cc1 | 20 nM |
| O=C(CCc1ccc(NC2=NCCN2)cc1)c1ccc(Cl)cc1Cl [1-(2,4-dichlorophenyl)-3-[4-(4,5-dihydro-1H-imidazol-2-ylamino)phenyl]-propan-1-one] | 0.282 nM |
| O=C(CCc1ccc(NC2=NCCN2)cc1)c1ccc(F)cc1F [1-(2,4-difluorophenyl)-3-[4-(4,5-dihydro-1H-imidazol-2-ylamino)phenyl]-propan-1-one] | 56.2 nM |
| O=C(CCc1ccc(NC2=NCCN2)cc1)c1ccc(Cl)c(Cl)c1 [1-(3,4-dichlorophenyl)-3-[4-(4,5-dihydro-1H-imidazol-2-ylamino)phenyl]-propan-1-one] | 9.55 nM |
| O=C(CCc1ccc(NC2=NCCN2)cc1)c1ccc(F)c(F)c1 [1-(3,4-difluorophenyl)-3-[4-(4,5-dihydro-1H-imidazol-2-ylamino)phenyl]-propan-1-one] | 22.4 nM |
| O=C(CCc1ccc(NC2=NCCN2)cc1)c1cc(F)cc(F)c1 [1-(3,5-difluorophenyl)-3-[4-(4,5-dihydro-1H-imidazol-2-ylamino)phenyl]-propan-1-one] | 0.741 nM |
| O=C(CCc1ccc(NC2=NCCN2)cc1)c1cc(F)c(Cl)cc1Cl [1-(4,6-dichloro-3-fluorophenyl)-3-[4-(4,5-dihydro-1H-imidazol-2-ylamino)-phenyl]propan-1-one] | 0.708 nM |
| O=C(CCc1ccc(NC2=NCCN2)cc1)c1ccc(Cl)cc1 [1-(4-chlorophenyl)-3-[4-(4,5-dihydro-1H-imidazol-2-ylamino)phenyl]-propan-1-one] | 0.398 nM |
| CC(=O)N1CCN(c2ccc(C(=O)CCc3ccc(NC4=NCCN4)cc3)cc2)CC1 [1-[4-(4-acetylpiperazin-1-yl)phenyl]-3-[4-(4,5-dihydro-1H-imidazol-2-ylamino)-phenyl]propan-1-one] | 6.31 nM |
| O=C(CCc1ccc(NC2=NCCN2)cc1)c1ccc(Cl)c(Cl)c1Cl [3-[4-(4,5-dihydro-1H-imidazol-2-ylamino)phenyl]-1-(2,3,4-trichlorophenyl)-propan-1-one] | 1.74 nM |
| COc1ccc(C(=O)CCc2ccc(NC3=NCCN3)cc2)c(F)c1 [3-[4-(4,5-dihydro-1H-imidazol-2-ylamino)phenyl]-1-(2-fluoro-4-methoxy-phenyl)-propan-1-one] | 1 nM |
| O=C(CCc1ccc(NC2=NCCN2)cc1)c1ccccc1F [3-[4-(4,5-dihydro-1H-imidazol-2-ylamino)phenyl]-1-(2-fluorophenyl)propan-1-one] | 0.447 nM |
| O=C(CCc1ccc(NC2=NCCN2)cc1)c1cccc(F)c1 [3-[4-(4,5-dihydro-1H-imidazol-2-ylamino)phenyl]-1-(3-fluorophenyl)propan-1-one] | 0.676 nM |
| O=C(CCc1ccc(NC2=NCCN2)cc1)c1ccc(OCc2ccccc2)cc1 [3-[4-(4,5-dihydro-1H-imidazol-2-ylamino)phenyl]-1-(4-benzyloxyphenyl)-propan-1-one] | 11.2 nM |
| CC(C)Oc1ccc(C(=O)CCc2ccc(NC3=NCCN3)cc2)cc1 [3-[4-(4,5-dihydro-1H-imidazol-2-ylamino)phenyl]-1-(4-isopropoxyphenyl)-propan-1-one] | 0.437 nM |
| O=C(CCc1ccc(NC2=NCCN2)cc1)c1ccc(-c2ccccc2)cc1 [3-[4-(4,5-dihydro-1H-imidazol-2-ylamino)phenyl]-1-(4-phenylphenyl)-propan-1-one] | 1.48 nM |

| Compound | Ki |
| --- | --- |
| COc1ccc2cc(C(=O)CCc3ccc(NC4=NCCN4)cc3)ccc2c1 [3-[4-(4,5-dihydro-1H-imidazol-2-ylamino)phenyl]-1-(6-methoxynaphthalen-2-yl)-propan-1-one] | 0.427 nM |
| O=C(CCc1ccc(NC2=NCCN2)cc1)c1cccc2ccccc12 [3-[4-(4,5-dihydro-1H-imidazol-2-ylamino)phenyl]-1-(naphthalen-1-yl)-propan-1-one] | 1.02 nM |
| O=C(CCc1ccc(NC2=NCCN2)cc1)c1ccc2ccccc2c1 [3-[4-(4,5-dihydro-1H-imidazol-2-ylamino)phenyl]-1-(naphthalen-2-yl)propan-1-one] | 4.9 nM |
| O=C(CCc1ccc(NC2=NCCN2)cc1)c1ccccc1 [3-[4-(4,5-dihydro-1H-imidazol-2-ylamino)phenyl]-1-(phenyl)propan-1-one] | 3.16 nM |
| CCOC(=O)N1CCN(c2ccc(C(=O)CCc3ccc(NC4=NCCN4)cc3)c(F)c2)CC1 [3-[4-(4,5-dihydro-1H-imidazol-2-ylamino)phenyl]-1-[4-(4-ethoxycarbonyl-piperazin-1-yl)-2-fluorophenyl]propan-1-one] | 67.6 nM |
| CCNC(=O)N1CCN(c2ccc(C(=O)CCc3ccc(NC4=NCCN4)cc3)cc2)CC1 [3-[4-(4,5-dihydro-1H-imidazol-2-ylamino)phenyl]-1-[4-(4-ethylamino-carbonyl-piperazin-1-yl)phenyl]propan-1-one] | 38.9 nM |
| CN1CCN(c2ccc(C(=O)CCc3ccc(NC4=NCCN4)cc3)cc2)CC1 [3-[4-(4,5-dihydro-1H-imidazol-2-ylamino)phenyl]-1-[4-(4-methylpiperazin-1-yl)-phenyl]propan-1-one] | 7.08 nM |
| CCCOC(=O)N1CCN(c2ccc(C(=O)CCc3ccc(NC4=NCCN4)cc3)cc2)CC1 [3-[4-(4,5-dihydro-1H-imidazol-2-ylamino)phenyl]-1-[4-(4-propoxycarbonyl-piperazin-1-yl)phenyl]propan-1-one] | 58.9 nM |
| O=C(CCc1ccc(NC2=NCCN2)cc1)c1ccc(F)cc1 [Example 1, 3-[4-(4,5-Dihydro-1H-imidazol-2-ylamino)phenyl]-1-(4-fluorophenyl)propan-1-one] | 0.316 nM |
| O=C(CCc1ccc(NC2=NCCN2)cc1)c1ccc(N2CCOCC2)cc1F [Example 4, 3-[4-(4,5-Dihydro-1H-imidazol-2-ylamino)phenyl]-1-(2-fluoro-4-morpholin-4-yl-phenyl)propan-1-one] | 18.2 nM |
| CCOC(=O)N1CCN(c2ccc(C(=O)CCc3ccc(NC4=NCCN4)cc3)cc2)CC1 [Example 5, 3-[4-(4,5-Dihydro-1H-imidazol-2-ylamino)phenyl]-1-[4-(4-ethoxycarbonyl-piperazin-1-yl)-phenyl]propan-1-one] | 9.33 nM |
| CS(=O)(=O)N1CCN(c2ccc(C(=O)CCc3ccc(NC4=NCCN4)cc3)cc2)CC1 [Example 6, 3-[4-(4,5-Dihydro-1H-imidazol-2-ylamino)phenyl]-1-[4-(4-methanesulfonyl-piperazin-1-yl)phenyl]propan-1-one] | 28.2 nM |
| O=C(CCCc1ccc(NC2=NCCN2)cc1)c1ccc(F)cc1 [Example 8, 4-[4-(4,5-Dihydro-1H-imidazol-2-ylamino)phenyl]-1-(4-fluorophenyl)butan-1-one] | 3.09 nM |
| O=C(COc1ccc(NC2=NCCN2)cc1)c1ccc2c(c1)OCCO2 [Example 9, 1-(2,3-Dihydrobenzo[1,4]dioxin-6-yl)-2-[4-(4,5-dihydro-1H-imidazol-2-ylamino)-phenoxy] ethanone] | 44.7 nM |
| COc1ccc(C(=O)COc2ccc(NC3=NCCN3)cc2)cc1 [Example 10, 2-[4-(4,5-Dihydro-1H-imidazol-2-ylamino)phenoxy]-1-(4-methoxyphenyl)ethanone] | 2.75 nM |
